The target in test [1] is Dual specificity mitogen-activated protein kinase kinase 2 (Homo sapiens) (UniProt P36507). Put plainly: Selectivity interaction (KinomeScan (DiscoverX)) EUB0000607a MAP2K2. The settings on record: at 10 µM.
Test [2] concerns the target Ribosomal protein S6 kinase alpha-3 (Homo sapiens, UniProt P51812). Put plainly: Selectivity interaction (KinomeScan (DiscoverX)) EUB0000666a RPS6KA3. Particulars: at 10 µM.
Test [3] deals with Mitogen-activated protein kinase kinase kinase 11 (Homo sapiens) (UniProt Q16584). Put plainly: Selectivity interaction (KinomeScan (DiscoverX)) EUB0000229b MAP3K11. The settings on record: at 10 µM.
Sequence of Mitogen-activated protein kinase kinase kinase 11 (Homo sapiens) (Q16584 whole entry, looked up): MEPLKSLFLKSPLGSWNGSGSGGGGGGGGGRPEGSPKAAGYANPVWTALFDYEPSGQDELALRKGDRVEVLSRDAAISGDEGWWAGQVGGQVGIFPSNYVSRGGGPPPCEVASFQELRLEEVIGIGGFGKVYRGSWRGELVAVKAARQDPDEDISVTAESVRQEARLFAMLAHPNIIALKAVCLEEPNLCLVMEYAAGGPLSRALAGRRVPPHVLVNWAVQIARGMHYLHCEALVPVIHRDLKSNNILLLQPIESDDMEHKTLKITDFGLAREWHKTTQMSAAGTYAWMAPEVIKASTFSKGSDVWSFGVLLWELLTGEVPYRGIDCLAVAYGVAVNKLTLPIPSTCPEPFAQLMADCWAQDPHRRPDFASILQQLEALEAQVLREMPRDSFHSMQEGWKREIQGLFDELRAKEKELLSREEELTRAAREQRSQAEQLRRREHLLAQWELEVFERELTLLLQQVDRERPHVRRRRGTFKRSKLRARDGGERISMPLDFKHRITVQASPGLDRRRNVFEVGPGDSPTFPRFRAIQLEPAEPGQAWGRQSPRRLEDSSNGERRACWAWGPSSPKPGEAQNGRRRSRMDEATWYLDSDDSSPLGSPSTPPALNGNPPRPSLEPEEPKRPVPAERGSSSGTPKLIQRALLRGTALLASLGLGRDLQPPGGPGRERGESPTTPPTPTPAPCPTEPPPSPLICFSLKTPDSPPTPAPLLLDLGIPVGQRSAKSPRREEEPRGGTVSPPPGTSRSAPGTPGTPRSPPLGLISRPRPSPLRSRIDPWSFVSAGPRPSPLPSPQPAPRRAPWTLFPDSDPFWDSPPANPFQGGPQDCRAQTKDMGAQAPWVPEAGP
Test [4] addresses Serine/threonine-protein kinase 32A (Homo sapiens) (UniProt Q8WU08). Put plainly: Selectivity interaction (KinomeScan (DiscoverX)) EUB0000655a STK32A. The settings on record: at 10 µM.
The target of test [5] is Serine/threonine-protein kinase MARK2 (Homo sapiens) (UniProt Q7KZI7). The test is described as follows: Selectivity interaction (KinomeScan (DiscoverX)) EUB0001079a MARK2. The settings on record: at 1 µM.
In test [6] the target is Protein-tyrosine kinase 6 (Homo sapiens, UniProt Q13882). The test is described as follows: Selectivity interaction (KinomeScan (DiscoverX)) EUB0001079a PTK6. The settings on record: at 1 µM.
Sequence of Protein-tyrosine kinase 6 (Q13882 whole entry, looked up): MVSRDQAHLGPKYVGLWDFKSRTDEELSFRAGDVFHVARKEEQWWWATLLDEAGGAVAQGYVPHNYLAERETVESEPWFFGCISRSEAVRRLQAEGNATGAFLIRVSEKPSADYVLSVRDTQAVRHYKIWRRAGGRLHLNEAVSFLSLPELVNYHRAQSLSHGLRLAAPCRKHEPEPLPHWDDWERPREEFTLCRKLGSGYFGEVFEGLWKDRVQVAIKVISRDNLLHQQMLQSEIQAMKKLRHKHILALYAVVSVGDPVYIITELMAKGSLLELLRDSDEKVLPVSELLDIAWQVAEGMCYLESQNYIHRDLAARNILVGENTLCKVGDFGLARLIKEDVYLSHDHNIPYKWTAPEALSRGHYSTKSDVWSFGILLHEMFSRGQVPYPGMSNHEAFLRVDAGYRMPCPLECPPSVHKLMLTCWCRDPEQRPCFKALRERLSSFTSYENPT
The target in test [7] is DNA-dependent protein kinase catalytic subunit (Homo sapiens) (UniProt P78527). The test is described as follows: Selectivity interaction (ActivX KiNativ screen (kinase selectivity in THP-1 cell lysates)) EUB0000639a PRKDC. Particulars: lysate, at 0.01 µM. The test is classed as subcellular.
For test [8], the target named is T1, Serine/threonine-protein kinase Chk1 (Homo sapiens) (UniProt O14757).
T1 sequence (whole entry): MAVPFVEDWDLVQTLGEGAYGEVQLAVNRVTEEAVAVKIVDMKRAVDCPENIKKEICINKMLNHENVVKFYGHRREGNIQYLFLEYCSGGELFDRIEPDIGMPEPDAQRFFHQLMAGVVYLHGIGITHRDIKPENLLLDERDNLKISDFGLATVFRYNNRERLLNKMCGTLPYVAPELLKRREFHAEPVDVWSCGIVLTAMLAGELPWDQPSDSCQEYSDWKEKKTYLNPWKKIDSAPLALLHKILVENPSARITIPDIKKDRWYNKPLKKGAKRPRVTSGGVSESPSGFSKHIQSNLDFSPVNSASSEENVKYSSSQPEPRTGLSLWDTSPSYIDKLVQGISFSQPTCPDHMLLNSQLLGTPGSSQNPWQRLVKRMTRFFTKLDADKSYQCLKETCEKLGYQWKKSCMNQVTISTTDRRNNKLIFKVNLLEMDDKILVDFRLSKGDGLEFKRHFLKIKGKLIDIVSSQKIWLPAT
Put plainly: Selectivity interaction (Millipore kinase profiler) EUB0000124b CHEK1. The settings on record: at 10 µM.

Test [9] addresses Tyrosine-protein kinase Fes/Fps (Homo sapiens) (UniProt P07332). Put plainly: Selectivity interaction (Millipore kinase profiler) EUB0000124b FES. The settings on record: at 10 µM.
Test [10] concerns the target Casein kinase I isoform gamma-2 (Homo sapiens) (UniProt P78368). The test is described as follows: Selectivity interaction (KinomeScan (DiscoverX)) EUB0001049a CSNK1G2. The settings on record: at 1 µM.
The target in another test is Misshapen-like kinase 1 (Homo sapiens, UniProt Q8N4C8). The test is described as follows: Selectivity interaction (KinomeScan (DiscoverX)) EUB0001049a MINK1. Particulars: at 1 µM.
The target in test [11] is Glycogen synthase kinase-3 beta (Homo sapiens, UniProt P49841). The test is described as follows: Selectivity interaction (KinomeScan (DiscoverX)) EUB0000695a GSK3B. Particulars: at 100 nM.
Sequence of Glycogen synthase kinase-3 beta (P49841 whole entry, looked up): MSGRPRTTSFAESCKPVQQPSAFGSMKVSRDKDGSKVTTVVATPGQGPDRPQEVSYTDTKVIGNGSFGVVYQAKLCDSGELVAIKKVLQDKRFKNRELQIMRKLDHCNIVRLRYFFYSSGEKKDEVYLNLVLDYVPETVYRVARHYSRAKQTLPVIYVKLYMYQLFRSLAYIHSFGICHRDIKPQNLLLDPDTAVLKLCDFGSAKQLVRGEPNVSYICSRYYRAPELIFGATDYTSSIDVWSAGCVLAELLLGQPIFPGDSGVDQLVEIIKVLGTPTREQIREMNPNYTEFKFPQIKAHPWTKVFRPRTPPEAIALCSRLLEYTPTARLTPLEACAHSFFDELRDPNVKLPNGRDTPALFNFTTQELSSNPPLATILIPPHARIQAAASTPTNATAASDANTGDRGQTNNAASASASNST
For test [12], the target named is Tyrosine-protein kinase CSK (Homo sapiens) (UniProt P41240). The test is described as follows: Selectivity interaction (ProQinase) EUB0000171b CSK.
Sequence of Tyrosine-protein kinase CSK (Homo sapiens) (P41240 2-450 limits assumed): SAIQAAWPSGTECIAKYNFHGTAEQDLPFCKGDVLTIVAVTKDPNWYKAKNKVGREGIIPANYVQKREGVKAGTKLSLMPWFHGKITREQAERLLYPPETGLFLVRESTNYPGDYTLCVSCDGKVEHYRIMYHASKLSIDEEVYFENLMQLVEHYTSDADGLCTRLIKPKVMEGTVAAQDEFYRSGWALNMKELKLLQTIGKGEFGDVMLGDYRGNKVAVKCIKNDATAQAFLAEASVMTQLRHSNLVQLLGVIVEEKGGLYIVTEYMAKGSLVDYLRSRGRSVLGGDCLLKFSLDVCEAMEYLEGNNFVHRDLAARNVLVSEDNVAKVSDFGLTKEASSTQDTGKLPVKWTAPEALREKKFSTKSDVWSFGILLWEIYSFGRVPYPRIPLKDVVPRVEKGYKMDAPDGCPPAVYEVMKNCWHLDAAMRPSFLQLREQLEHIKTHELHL
The target in test [13] is T2, MAP/microtubule affinity-regulating kinase 4 (Homo sapiens) (UniProt Q96L34).
T2 sequence (whole entry): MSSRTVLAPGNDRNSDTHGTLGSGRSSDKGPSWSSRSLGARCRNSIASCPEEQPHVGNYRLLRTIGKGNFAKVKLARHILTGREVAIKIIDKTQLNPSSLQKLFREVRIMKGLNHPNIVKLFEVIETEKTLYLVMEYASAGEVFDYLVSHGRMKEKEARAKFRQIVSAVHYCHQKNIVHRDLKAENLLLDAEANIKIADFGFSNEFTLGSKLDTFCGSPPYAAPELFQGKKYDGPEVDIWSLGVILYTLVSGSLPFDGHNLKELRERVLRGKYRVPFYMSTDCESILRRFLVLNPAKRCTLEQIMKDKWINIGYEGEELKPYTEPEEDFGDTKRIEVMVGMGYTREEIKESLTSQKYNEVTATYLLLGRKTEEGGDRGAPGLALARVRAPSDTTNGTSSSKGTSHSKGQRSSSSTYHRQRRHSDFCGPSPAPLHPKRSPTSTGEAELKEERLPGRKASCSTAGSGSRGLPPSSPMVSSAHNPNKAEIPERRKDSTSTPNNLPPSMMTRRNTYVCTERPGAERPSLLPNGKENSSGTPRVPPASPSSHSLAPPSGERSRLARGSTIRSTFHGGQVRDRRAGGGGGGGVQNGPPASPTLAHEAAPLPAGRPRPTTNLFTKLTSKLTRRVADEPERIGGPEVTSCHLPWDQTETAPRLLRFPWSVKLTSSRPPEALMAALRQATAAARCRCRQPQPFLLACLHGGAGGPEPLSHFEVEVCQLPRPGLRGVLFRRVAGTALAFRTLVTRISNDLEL
The test is described as follows: Selectivity interaction (KinomeScan (DiscoverX)) EUB0000092b MARK4. Particulars: at 10 µM.

Test [14] deals with Serine/threonine-protein kinase PLK2 (Homo sapiens, UniProt Q9NYY3). The test is described as follows: Selectivity interaction (KinomeScan (DiscoverX)) EUB0000045b PLK2.
Sequence of Serine/threonine-protein kinase PLK2 (Q9NYY3 whole entry, looked up): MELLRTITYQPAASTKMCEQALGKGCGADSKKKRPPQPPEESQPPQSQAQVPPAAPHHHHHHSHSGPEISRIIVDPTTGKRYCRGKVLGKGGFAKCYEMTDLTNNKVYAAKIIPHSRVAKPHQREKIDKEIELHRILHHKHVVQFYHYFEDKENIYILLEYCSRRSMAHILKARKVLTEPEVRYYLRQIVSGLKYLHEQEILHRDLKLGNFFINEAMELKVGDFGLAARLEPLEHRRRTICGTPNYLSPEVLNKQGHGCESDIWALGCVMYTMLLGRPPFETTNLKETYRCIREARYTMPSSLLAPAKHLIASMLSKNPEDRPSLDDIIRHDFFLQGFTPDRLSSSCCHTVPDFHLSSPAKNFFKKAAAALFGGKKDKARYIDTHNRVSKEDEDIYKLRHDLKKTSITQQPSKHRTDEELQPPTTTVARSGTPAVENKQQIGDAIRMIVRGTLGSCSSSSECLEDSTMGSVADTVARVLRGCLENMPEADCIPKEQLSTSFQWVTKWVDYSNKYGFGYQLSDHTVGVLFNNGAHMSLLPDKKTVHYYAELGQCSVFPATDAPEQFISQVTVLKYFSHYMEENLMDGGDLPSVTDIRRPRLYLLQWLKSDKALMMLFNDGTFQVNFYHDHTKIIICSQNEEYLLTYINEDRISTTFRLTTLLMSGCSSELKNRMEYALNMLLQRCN
The target of test [15] is T3, cGMP-dependent protein kinase 1 (Homo sapiens) (UniProt Q13976).
T3 sequence (whole entry): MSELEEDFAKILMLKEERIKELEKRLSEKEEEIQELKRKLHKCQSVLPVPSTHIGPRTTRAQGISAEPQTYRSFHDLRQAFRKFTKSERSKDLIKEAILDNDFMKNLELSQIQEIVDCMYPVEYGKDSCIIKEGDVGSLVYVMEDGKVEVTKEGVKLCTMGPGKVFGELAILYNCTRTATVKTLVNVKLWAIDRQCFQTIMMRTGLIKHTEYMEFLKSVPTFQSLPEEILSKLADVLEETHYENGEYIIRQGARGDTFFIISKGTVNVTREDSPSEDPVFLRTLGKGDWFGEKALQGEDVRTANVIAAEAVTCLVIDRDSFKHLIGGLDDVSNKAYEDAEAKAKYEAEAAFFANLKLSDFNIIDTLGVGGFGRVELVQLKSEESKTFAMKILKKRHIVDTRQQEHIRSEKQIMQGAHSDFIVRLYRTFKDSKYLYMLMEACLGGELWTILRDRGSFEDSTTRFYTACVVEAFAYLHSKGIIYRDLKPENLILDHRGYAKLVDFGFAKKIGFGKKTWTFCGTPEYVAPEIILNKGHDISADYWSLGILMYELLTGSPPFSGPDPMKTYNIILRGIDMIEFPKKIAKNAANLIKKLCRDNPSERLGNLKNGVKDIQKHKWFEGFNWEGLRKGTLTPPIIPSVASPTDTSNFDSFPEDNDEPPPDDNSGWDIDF
The test is described as follows: Selectivity interaction (KinomeScan (DiscoverX)) EUB0000618a PRKG1. Particulars: at 10 µM.

SMILES strings stand for the structures.

Sequence of Casein kinase I isoform gamma-2 (Homo sapiens) (P78368 whole entry, looked up, canonical isoform): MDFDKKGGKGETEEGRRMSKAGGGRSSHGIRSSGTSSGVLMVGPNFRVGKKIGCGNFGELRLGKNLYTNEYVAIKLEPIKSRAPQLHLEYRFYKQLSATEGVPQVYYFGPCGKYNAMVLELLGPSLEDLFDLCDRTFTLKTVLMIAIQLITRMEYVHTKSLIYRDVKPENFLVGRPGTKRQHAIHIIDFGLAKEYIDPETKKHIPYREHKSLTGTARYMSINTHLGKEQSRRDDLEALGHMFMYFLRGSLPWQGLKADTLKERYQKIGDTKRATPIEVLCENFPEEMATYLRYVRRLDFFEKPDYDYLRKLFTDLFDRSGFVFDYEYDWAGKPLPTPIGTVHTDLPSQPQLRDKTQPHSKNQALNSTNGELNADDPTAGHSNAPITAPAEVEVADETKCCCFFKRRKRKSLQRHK
Sequence of Tyrosine-protein kinase Fes/Fps (Homo sapiens) (P07332 whole entry, canonical isoform): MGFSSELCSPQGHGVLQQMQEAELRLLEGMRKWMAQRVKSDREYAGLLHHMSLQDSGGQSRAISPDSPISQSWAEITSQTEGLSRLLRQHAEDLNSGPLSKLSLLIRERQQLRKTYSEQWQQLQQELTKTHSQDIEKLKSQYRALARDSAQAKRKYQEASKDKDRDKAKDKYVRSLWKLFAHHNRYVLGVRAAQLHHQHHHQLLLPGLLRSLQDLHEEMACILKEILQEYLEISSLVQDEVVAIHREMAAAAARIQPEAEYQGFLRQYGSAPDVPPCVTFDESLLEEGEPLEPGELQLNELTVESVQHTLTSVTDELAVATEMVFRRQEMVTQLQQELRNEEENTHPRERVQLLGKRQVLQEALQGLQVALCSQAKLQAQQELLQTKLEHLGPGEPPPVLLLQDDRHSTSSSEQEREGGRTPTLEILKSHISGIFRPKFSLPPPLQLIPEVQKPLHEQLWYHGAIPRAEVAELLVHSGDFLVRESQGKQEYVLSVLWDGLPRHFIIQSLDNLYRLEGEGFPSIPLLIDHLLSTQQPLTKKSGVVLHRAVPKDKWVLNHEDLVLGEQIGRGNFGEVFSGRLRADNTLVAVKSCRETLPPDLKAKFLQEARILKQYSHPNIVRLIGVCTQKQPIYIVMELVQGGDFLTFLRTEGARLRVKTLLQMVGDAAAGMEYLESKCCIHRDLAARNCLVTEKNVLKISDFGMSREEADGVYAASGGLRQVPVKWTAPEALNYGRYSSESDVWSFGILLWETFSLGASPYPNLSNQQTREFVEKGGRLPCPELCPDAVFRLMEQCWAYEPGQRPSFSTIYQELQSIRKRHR
Sequence of Serine/threonine-protein kinase 32A (Homo sapiens) (Q8WU08 whole entry): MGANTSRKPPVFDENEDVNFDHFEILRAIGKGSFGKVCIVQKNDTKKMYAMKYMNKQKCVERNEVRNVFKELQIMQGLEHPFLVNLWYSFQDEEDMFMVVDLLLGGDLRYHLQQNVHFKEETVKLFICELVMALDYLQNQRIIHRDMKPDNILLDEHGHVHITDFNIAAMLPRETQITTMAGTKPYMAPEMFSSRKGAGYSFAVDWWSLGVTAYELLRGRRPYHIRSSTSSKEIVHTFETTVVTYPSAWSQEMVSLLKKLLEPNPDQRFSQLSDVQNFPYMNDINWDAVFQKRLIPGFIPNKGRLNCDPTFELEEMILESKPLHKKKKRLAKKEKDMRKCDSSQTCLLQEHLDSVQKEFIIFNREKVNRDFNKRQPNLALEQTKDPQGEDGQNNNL
Sequence of Dual specificity mitogen-activated protein kinase kinase 2 (Homo sapiens) (P36507 whole entry): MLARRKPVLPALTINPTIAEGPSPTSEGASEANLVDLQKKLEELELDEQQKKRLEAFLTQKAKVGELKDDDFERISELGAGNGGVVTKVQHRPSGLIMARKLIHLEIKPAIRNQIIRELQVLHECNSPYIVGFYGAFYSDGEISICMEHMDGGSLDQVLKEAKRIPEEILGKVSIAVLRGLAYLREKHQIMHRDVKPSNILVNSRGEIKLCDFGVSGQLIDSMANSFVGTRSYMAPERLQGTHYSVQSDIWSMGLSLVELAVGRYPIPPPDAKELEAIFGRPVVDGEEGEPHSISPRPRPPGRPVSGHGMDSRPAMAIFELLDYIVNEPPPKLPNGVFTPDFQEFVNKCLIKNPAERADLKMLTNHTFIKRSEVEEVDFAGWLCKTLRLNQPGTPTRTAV

As for `CNC(=O)Nc1ccc(-c2nc(N3CC4CCC(C3)O4)c3cnn(C4CCC5(CC4)OCCO5)c3n2)cc1`, the % of control in [1] was determined as 100%.

Consider `O=C(NOC[C@H](O)CO)c1ccc(F)c(F)c1Nc1ccc(I)cc1F`, for which, in [2], the % of control stood at 100%.

`COc1cc(N(C)c2ccnc3ccc(C(F)(F)F)cc23)cc(OC)c1OC` returned a % binding in test [3] of 92%.

In the case of `CN(C)CCOc1ccc(-c2nc(-c3ccncc3)c(-c3ccc4c(c3)CC/C4=N\O)[nH]2)cc1`, the % of control in test [4] is 85%.

In the case of `Nc1cnc(N2CCc3cc(S(=O)(=O)Nc4c(F)cc(Cl)cc4F)cc(N4CCCC4=O)c32)nc1` [TP-020n], the % of control in [5] stood at 74%; in [6] it was 100%.

`CC[C@@H]1[C@H](F)C(=O)N[C@@H]1COc1nccc2cc(C(N)=O)c(OC)cc12` [ZIMLOVISERTIB]: the % of inhibition in test [7] was -2.2%.

As to `CC(=O)Nc1cccc(-n2c(=O)n(C3CC3)c(=O)c3c(Nc4ccc(I)cc4F)n(C)c(=O)c(C)c32)c1`, the values for the % of control in test [8] and in test [9] were 113% and 95%, respectively.

Consider `COc1cc(Nc2nc(C)cc(-c3cnn4nc(OC)ccc34)n2)cc(C(F)(F)F)c1`, for which the values for the % of control (in test [10]; on Misshapen-like kinase 1) were 97% and 79%, respectively.

The compound `Cc1cc(F)c(C(=O)Nc2cccc(-c3nncn3C(C)C)n2)cc1-n1cnc(C2CC2)c1` returned a % of control in test [11] of 100%.

For the compound `C=CC(=O)Nc1cccc(C(=O)Nc2ccc(Nc3cc(-c4[nH]c(SC)nc4C)ccn3)cc2)c1`, the values for the % of control in test [12] (at 1 µM) and in test [12] (at 5 µM) were 87% and 81%, respectively.

As for `CCC(=O)N1CCN(c2ccc(-n3c(=O)ccc4cnc5ccc(-c6cnc7ccccc7c6)cc5c43)cc2C(F)(F)F)CC1`, the % of control in test [13] turned out to be 100%.

`C=CC(=O)Nc1cc(-n2c(=O)ccc3cnc4ccc(-c5ccc(NS(C)(=O)=O)cc5)cc4c32)ccc1C`: the % of control was 72% in [14] (at 1 µM) and 86% in [14] (at 10 µM).

In test [15], `O[C@H]1CC[C@H](Nc2ncc3nc(Nc4c(F)cc(F)cc4F)n([C@H]4CCOC4)c3n2)CC1` had a % of control of 100%.

The values above are taken from ChEMBL document CHEMBL5465560, “Selectivity Literature for EUbOPEN Chemogenomic Library” (2024).
